According to ChEMBL document CHEMBL4364319 (Eur J Med Chem, 2019):
Activity calls are given as the source filed them. The rule behind the calls is not given here.

Experiments:
[1] = molecular target: Dipeptidyl peptidase 8 (Homo sapiens, UniProt Q6V1X1); experiment: Inhibition of DPP8 (unknown origin) using Gly-Pro-AMC as substrate preincubated for 15 mins followed by substrate addition measured at 60 secs interval for 20 mins by fluorometic method
[2] = molecular target: Dipeptidyl peptidase 9 (Homo sapiens, UniProt Q86TI2); experiment: Inhibition of DPP9 (unknown origin) using Gly-Pro-AMC as substrate preincubated for 15 mins followed by substrate addition measured at 60 secs interval for 20 mins by fluorometic method
Dipeptidyl peptidase 9, sequence (Q86TI2 whole entry): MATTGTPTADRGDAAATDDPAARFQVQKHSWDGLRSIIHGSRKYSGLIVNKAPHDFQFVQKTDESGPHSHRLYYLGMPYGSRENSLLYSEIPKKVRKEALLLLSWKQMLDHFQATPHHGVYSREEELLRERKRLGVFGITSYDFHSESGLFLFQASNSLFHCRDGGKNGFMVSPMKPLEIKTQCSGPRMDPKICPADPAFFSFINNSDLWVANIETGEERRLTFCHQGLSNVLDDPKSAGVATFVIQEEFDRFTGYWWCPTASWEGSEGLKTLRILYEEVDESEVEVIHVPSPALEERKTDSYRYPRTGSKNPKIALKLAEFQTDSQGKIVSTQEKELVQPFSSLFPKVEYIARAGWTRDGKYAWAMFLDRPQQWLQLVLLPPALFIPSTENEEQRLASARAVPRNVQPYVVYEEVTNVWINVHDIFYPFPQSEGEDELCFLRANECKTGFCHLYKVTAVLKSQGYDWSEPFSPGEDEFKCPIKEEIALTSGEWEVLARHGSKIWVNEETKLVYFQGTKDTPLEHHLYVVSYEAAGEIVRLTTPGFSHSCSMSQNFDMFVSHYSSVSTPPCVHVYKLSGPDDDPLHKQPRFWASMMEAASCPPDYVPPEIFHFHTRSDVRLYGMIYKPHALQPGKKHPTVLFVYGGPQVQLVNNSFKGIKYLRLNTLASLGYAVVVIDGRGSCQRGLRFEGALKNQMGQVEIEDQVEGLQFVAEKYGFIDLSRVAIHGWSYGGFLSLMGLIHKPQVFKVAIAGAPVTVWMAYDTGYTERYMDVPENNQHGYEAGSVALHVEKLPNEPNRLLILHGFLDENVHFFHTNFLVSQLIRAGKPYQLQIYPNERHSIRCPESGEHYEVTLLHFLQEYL

[3] = Stability in PBS at pH 7.4 assessed as compound remaining at 1 uM after 120 mins by LC-MS/MS analysis relative to control; assay type: physicochemical; conditions: read-out: Stability
[4] = Stability in Sprague-Dawley rat plasma assessed as compound remaining at 1 uM measured up to 120 mins by LC-MS/MS analysis relative to control; assay type: ADME, cell-free; conditions: read-out: Stability
[5] = Cytotoxicity against human LO2 cells assessed as cell viability at 20 uM after 48 hrs by MTT assay; assay type: cell-based, L02; conditions: read-out: Activity
[6] = system: Mus musculus; experiment: Anti-diabetic activity in 12 hrs-fasted ICR mouse assessed as reduction in blood glucose AUC (0 to 120 mins)at 10 mg/kg, po pretreated for 60 mins followed by glucose challenge and measured after 120 mins post glucose challenge by OGTT relative to control; assay type: functional; set-up: scale not given: the % may be the effect or the level left
[7] = system: Mus musculus; experiment: Anti-diabetic activity in 8 hrs-fasted C57BL/6 db/db mouse assessed as reduction in blood glucose AUC (0 to 120 mins) at 10 mg/kg, po pretreated for 60 mins followed by glucose challenge and measured after 120 mins post glucose challenge by OGTT relative to control; assay type: functional; set-up: scale not given: the % may be the effect or the level left
[8] = system: Mus musculus; experiment: Anti-diabetic activity in 8 hrs-fasted C57BL/6 db/db mouse assessed as reduction in blood glucose AUC (0 to 120 mins) at 3 mg/kg, po pretreated for 60 mins followed by glucose challenge and measured after 120 mins post glucose challenge by OGTT relative to control; assay type: functional; set-up: scale not given: the % may be the effect or the level left
[9] = system: Mus musculus; experiment: Anti-diabetic activity in 8 hrs-fasted C57BL/6 db/db mouse assessed as reduction in blood glucose AUC (0 to 120 mins) at 1 mg/kg, po pretreated for 60 mins followed by glucose challenge and measured after 120 mins post glucose challenge by OGTT relative to control; assay type: functional; set-up: scale not given: the % may be the effect or the level left
[10] = system: Mus musculus; experiment: Anti-diabetic activity in db/db mouse assessed as reduction in fasting blood glucose leave at 3 mg/kg, po dosed once daily for 3 weeks measured for every 7 days; assay type: functional, organism-based
[11] = system: Mus musculus; experiment: Anti-diabetic activity in db/db mouse assessed as reduction in fasting blood glucose leave at 10 mg/kg, po dosed once daily for 3 weeks measured for every 7 days; assay type: functional, organism-based
[12] = system: Mus musculus; experiment: Anti-diabetic activity in db/db mouse assessed as increase in glucose tolerance at 10 mg/kg, po dosed once daily for 3 weeks following 12 hrs fasting and glucose challenge measured up to 120 mins; assay type: functional, organism-based
[13] = system: Mus musculus; experiment: Anti-diabetic activity in db/db mouse assessed as reduction in blood glucose AUC (0 to 120 mins) at 3 mg/kg, po dosed once daily for 3 weeks following 12 hrs fasting and glucose challenge measured up to 120 mins relative to control; assay type: functional; set-up: scale not given: the % may be the effect or the level left
[14] = system: Mus musculus; experiment: Anti-diabetic activity in db/db mouse assessed as reduction in blood glucose AUC (0 to 120 mins) at 10 mg/kg, po dosed once daily for 3 weeks following 12 hrs fasting and glucose challenge measured up to 120 mins relative to control; assay type: functional; set-up: scale not given: the % may be the effect or the level left
[15] = Toxicity in db/db mouse assessed as increase in body weight at 3 to 10 mg/kg, po dosed once daily for 3 weeks and measured every day; assay type: organism-based; conditions: in vivo, 504 h
[16] = Half life in Sprague-Dawley rat at 10 mg/kg, po via gavage after 48 hrs by LC-MS/MS analysis; assay type: ADME, organism-based; conditions: in vivo
[17] = Half life in Sprague-Dawley rat assessed as (R)-2-((8-(3-aminopiperidin-1-yl)-7-(but-2-yn-1-yl)-3-methyl-2,6-dioxo-2,3,6,7-tetrahydro-1H-purin-1-yl)methyl)-5-chlorobenzoic acid level at 10 mg/kg, po via gavage after 48 hrs by LC-MS/MS analysis; assay type: ADME, organism-based; conditions: in vivo
[18] = Tmax in Sprague-Dawley rat at 10 mg/kg, po via gavage after 48 hrs by LC-MS/MS analysis; assay type: ADME, organism-based; conditions: in vivo
[19] = Tmax in Sprague-Dawley rat assessed as (R)-2-((8-(3-aminopiperidin-1-yl)-7-(but-2-yn-1-yl)-3-methyl-2,6-dioxo-2,3,6,7-tetrahydro-1H-purin-1-yl)methyl)-5-chlorobenzoic acid level at 10 mg/kg, po via gavage after 48 hrs by LC-MS/MS analysis; assay type: ADME, organism-based; conditions: in vivo
[20] = Cmax in Sprague-Dawley rat at 10 mg/kg, po via gavage after 48 hrs by LC-MS/MS analysis; assay type: ADME, organism-based; set-up: dose 10 mg/kg, route oral; conditions: in vivo
[21] = Cmax in Sprague-Dawley rat assessed as (R)-2-((8-(3-aminopiperidin-1-yl)-7-(but-2-yn-1-yl)-3-methyl-2,6-dioxo-2,3,6,7-tetrahydro-1H-purin-1-yl)methyl)-5-chlorobenzoic acid level at 10 mg/kg, po via gavage after 48 hrs by LC-MS/MS analysis; assay type: ADME, organism-based; set-up: dose 10 mg/kg, route oral; conditions: in vivo
[22] = AUC (0 to infinity) in Sprague-Dawley rat at 10 mg/kg, po via gavage after 48 hrs by LC-MS/MS analysis; assay type: ADME, organism-based; set-up: dose 10 mg/kg, route oral, time infinity; conditions: in vivo
[23] = AUC (0 to infinity) in Sprague-Dawley rat assessed as (R)-2-((8-(3-aminopiperidin-1-yl)-7-(but-2-yn-1-yl)-3-methyl-2,6-dioxo-2,3,6,7-tetrahydro-1H-purin-1-yl)methyl)-5-chlorobenzoic acid level at 10 mg/kg, po via gavage after 48 hrs by LC-MS/MS analysis; assay type: ADME, organism-based; set-up: dose 10 mg/kg, route oral, time infinity; conditions: in vivo
[24] = Clearance in Sprague-Dawley rat at 10 mg/kg, po via gavage after 48 hrs by LC-MS/MS analysis; assay type: ADME, organism-based; conditions: in vivo
[25] = Clearance in Sprague-Dawley rat assessed as (R)-2-((8-(3-aminopiperidin-1-yl)-7-(but-2-yn-1-yl)-3-methyl-2,6-dioxo-2,3,6,7-tetrahydro-1H-purin-1-yl)methyl)-5-chlorobenzoic acid level at 10 mg/kg, po via gavage after 48 hrs by LC-MS/MS analysis; assay type: ADME, organism-based; conditions: in vivo
[26] = Oral bioavailability in Sprague-Dawley rat assessed as (R)-2-((8-(3-aminopiperidin-1-yl)-7-(but-2-yn-1-yl)-3-methyl-2,6-dioxo-2,3,6,7-tetrahydro-1H-purin-1-yl)methyl)-5-chlorobenzoic acid level at 10 mg/kg via gavage after 48 hrs by LC-MS/MS analysis; assay type: ADME, organism-based; conditions: in vivo
[27] = system: Mus musculus; experiment: Anti-diabetic activity in po dosed 8 hrs-fasted C57BL/6 db/db mouse assessed as increase in glucose tolerance pretreated for 60 mins followed by glucose challenge and measured after 120 mins post glucose challenge by OGTT; assay type: functional, organism-based
[28] = species: Rattus norvegicus; experiment: animal or person; conditions: Sprague-Dawley, po, 12 h, read-out: INH
[29] = species: Rattus norvegicus; experiment: animal or person; conditions: Sprague-Dawley, po, 24 h, read-out: INH

Dipeptidyl peptidase 8, sequence (Q6V1X1 whole entry): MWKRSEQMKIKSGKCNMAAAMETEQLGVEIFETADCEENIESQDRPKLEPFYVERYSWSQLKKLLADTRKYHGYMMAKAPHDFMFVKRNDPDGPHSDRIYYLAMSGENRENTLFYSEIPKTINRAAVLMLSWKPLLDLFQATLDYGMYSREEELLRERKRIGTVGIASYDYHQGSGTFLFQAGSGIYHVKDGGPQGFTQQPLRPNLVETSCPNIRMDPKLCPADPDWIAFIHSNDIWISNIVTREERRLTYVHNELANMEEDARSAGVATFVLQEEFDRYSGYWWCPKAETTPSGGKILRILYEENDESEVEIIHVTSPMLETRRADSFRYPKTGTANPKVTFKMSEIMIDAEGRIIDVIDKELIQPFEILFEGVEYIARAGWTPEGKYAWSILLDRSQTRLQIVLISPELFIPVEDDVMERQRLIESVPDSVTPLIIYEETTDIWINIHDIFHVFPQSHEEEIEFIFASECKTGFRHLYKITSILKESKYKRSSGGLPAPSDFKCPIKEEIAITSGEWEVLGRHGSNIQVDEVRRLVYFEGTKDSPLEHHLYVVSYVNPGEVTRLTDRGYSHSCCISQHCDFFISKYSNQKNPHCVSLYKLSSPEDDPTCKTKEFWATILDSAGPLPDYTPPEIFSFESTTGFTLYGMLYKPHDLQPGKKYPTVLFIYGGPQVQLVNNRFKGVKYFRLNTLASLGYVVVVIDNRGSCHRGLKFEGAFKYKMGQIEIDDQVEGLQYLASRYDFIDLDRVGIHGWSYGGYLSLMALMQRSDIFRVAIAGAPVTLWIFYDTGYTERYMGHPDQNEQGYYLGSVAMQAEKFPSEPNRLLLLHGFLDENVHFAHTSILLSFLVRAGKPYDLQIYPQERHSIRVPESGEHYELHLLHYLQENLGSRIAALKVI

With `CC#CCn1c(N2CCC[C@@H](N)C2)nc2c1c(=O)n(Cc1ccc(Cl)cc1C(=O)OC)c(=O)n2C` the IC50 [1] was over 100 µM, the IC50 [2] was over 100 µM and the remaining at 2 h, 1 µM [3] was 101%. The remaining at 2 h, 1 µM [4] was 65.2%, the viability at 48 h, 20 µM [5] was 90% and the Activity [6] was 17.43%. It also gave an Activity [7] of 54.7%, an Activity [8] of 28.8% and an Activity [9] of 26.4%. For the same molecule, the Activity [10] was “Active”, the Activity [11] was “Active” and the Activity [12] was “Active”. The Activity [13] was 6%, the Activity [14] was 13.2% and the Activity [15] was “Non-Toxic”. For the same molecule, the half-life [16] was 10.1 h, the t1/2 [17] was 11.81 h and the Tmax [18] was 1 h. The Tmax [19] was 1 h, the Cmax [20] was 1180 ng/mL and the Cmax [21] was 693.32 ng/mL. It also gave an AUC [22] of 6107.3 ng·h/mL, an AUC [23] of 3746.05 ng·h/mL and a CL [24] of 2.67 mL/min/kg. The CL [25] was 4.5 mL/min/kg, the F [26] was 19.46% and the Activity [27] was “Dose-dependent effect”. It also gave an inhibition in vivo at 10 mg/kg [28] of 85% and an inhibition in vivo at 10 mg/kg [29] of 60%.
